Patent publication US20020183384A1, “Methods of treating nuclear factor-kappa B mediated diseases and disorders” (priority 2001, published 2002)

System: NF-κB mediated transcription
Assay: NF-κB driven β-lactamase reporter assay in ECV-304 NF-κB.βlaZ cells (AURORA CCF2 fluorescence)
Type: cell-based, human
Conditions: 10 μM compound, ECV-304 NF-κB.βlaZ cells stimulated with 10 ng/mL TNF-α or 100 pg/mL IL-1β, 6 hours at 37° C., inhibition of maximum blue/green ratio; for inhibition at 10 µM: Homo sapiens, ECV-304, 6 h, read-out: Percent Inhibition at 10 μM
How it was run: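 ECV-304 cells (clone 1E8) stably carrying a β-lactamase reporter driven by 5 HIV-1 NF-κB sites, plated in M-199 with 2% FBS, compound at 10 μM final. CCF2 read at 395 nm excitation, blue 460 nm/green 530 nm emission ratio; IC50 from dose-response curve.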

Compound	inhibition at 10 µM [%]	also measured
CC(C)c1cc(C(C)C)c(CC(=O)NS(=O)(=O)Oc2c(C(C)C)cc(NC(=O)[C@@H](N)CCC(N)=O)cc2C(C)C)c(C(C)C)c1 [Example 231, [2-(2,4,6-Triisopropyl-phenyl)-acetyl]-sulfamic acid 4-((S)-2-amino-4-carbamoyl-butyrylamino)-2,6-diisopropyl-phenyl ester; compound with trifluoro-acetic acid]	78.1	–
CC(C)c1cc(C(C)C)c(CC(=O)NS(=O)(=O)Oc2c(C(C)C)cc(NC(=O)[C@@H](N)C(C)C)cc2C(C)C)c(C(C)C)c1 [Example 232, [2-(2,4,6-Triisopropyl-phenyl)-acetyl]-sulfamic acid 4-((S)-2-amino-3-methyl-butyrylamino)-2,6-diisopropyl-phenyl ester; compound with trifluoro-acetic acid]	76.9	–
CC(C)c1cc(C(C)C)c(CC(=O)NS(=O)(=O)Oc2c(C(C)C)cc(CO)cc2C(C)C)c(C(C)C)c1 [Example 233, [(2,4,6-Triisopropyl-phenyl)-acetyl]-sulfamic acid 4-hydroxymethyl-2,6-diisopropyl-phenyl ester]	76.9	–
CC(C)c1cc(C(C)C)c(CC(=O)NS(=O)(=O)Oc2c(C(C)C)cc(C(N)=O)cc2C(C)C)c(C(C)C)c1 [Example 234, [(2,4,6-Triisopropyl-phenyl)-acetyl]-sulfamic acid 4-carbamoyl-2,6-diisopropyl-phenyl ester]	76.7	–
CC(C)c1cc(C(C)C)c(CC(=O)NS(=O)(=O)Oc2c(C(C)C)cc(NC(=S)Nc3cc(Cl)cc(Cl)c3)cc2C(C)C)c(C(C)C)c1 [Example 235, [(2,4,6-Triisopropyl-phenyl)-acetyl]-sulfamic acid 4-[3-(3,5-dichloro-phenyl)-thioureido]-2,6-diisopropyl-phenyl ester]	146	–
C/C(=C\c1ccccc1)C(=O)NS(=O)(=O)Oc1c(C(C)C)cccc1C(C)C [Example 236, ((E)-2-Methyl-3-phenyl-acryloyl)-sulfamic acid 2,6-diisopropyl-phenyl ester]	79.4	–
CC(C)c1cccc(C(C)C)c1OS(=O)(=O)NC(=O)c1cc2ccccc2oc1=O [Example 237, (2-Oxo-2H-chromene-3-carbonyl)-sulfamic acid 2,6-diisopropyl-phenyl ester]	57.1	–
CCCCCCCCCCCCCCCCS(=O)(=O)NC(=O)Nc1c(C(C)C)cccc1C(C)C [Example 238, N-[2,6-bis(1-methylethyl)phenyl]-N′-(hexadecylsulfonyl)-urea]	12	–
CCOc1ccc2nc(S(=O)(=O)NC(=O)Nc3c(C(C)C)cccc3C(C)C)sc2c1 [Example 239, N-[2,6-bis(1-methylethyl)phenyl]-N′-[(6-ethoxy-2-benzothiazolyl)sulfonyl]-urea]	< 10	–
CCCCCCCCCCCCCCS(=O)(=O)NC(=O)Nc1c(C(C)C)cccc1C(C)C [Example 240, N-[2,6-bis(1-methylethyl)phenyl]-N′-(tetradecylsulfonyl)-urea]	10.3	–
CCCCCCCCCCCCCCS(=O)(=O)N(C)C(=O)Nc1c(C(C)C)cccc1C(C)C [Example 241, N′-[2,6-bis(1-methylethyl)phenyl]-N-methyl-N-(tetradecylsulfonyl)-urea]	< 10	–
CCCCCCCCCCCCCS(=O)(=O)NC(=O)Nc1c(C(C)C)cccc1C(C)C [Example 242, N-[2,6-bis(1-methylethyl)phenyl]-N′-(tridecylsulfonyl)urea]	< 10	–
CCCCCCCCC(c1ccccc1)S(=O)(=O)NC(=O)Nc1c(C(C)C)cccc1C(C)C (stereo not drawn) [Example 243, N-[2,6-bis(1-methylethyl)phenyl]-N′-(1-phenyl-1-nonylsulfonyl)urea]	< 10	–
CCCCCCCCC(C)S(=O)(=O)NC(=O)Nc1c(C(C)C)cccc1C(C)C (stereo not drawn) [Example 244, N-[2,6-bis(1-methylethyl)phenyl]-N′-(2-decylsulfonyl)urea]	< 10	–
CCCCCCCCCCCCCC(c1ccccc1)S(=O)(=O)NC(=O)Nc1c(C(C)C)cccc1C(C)C (stereo not drawn) [Example 245, N-[2,6-bis(1-methylethyl)phenyl]-N′-(1-phenyl-1-tetradecylsulfonyl)urea]	16.1	–
CCCCCCCCCCCCCCCCC(C)S(=O)(=O)NC(=O)Nc1c(C(C)C)cccc1C(C)C (stereo not drawn) [Example 246, N-[2,6-bis(1-methylethyl)phenyl]-N′-(2-octadecylsulfonyl)urea]	< 10	–
CCCCCCCCCCCCCCCCC(C)S(=O)(=O)NC(=O)Nc1c(OC)cc(OC)cc1OC (stereo not drawn) [Example 247, N-[2,4,6-trimethoxyphenyl]-N′-(2-octadecylsulfonyl)urea]	14.8	–
CCCCCCCCCCCCCC(C)(C)S(=O)(=O)NC(=O)Nc1c(C(C)C)cccc1C(C)C [Example 248, N-[2,6-bis(1-methylethyl)phenyl]-N′-(2-methyl-2-pentadecylsulfonyl)urea]	11.4	–
CCCCCCCCCCCCCC(C)(C)S(=O)(=O)NC(=O)Nc1c(OC)cc(OC)cc1OC [Example 249, N-[2,4,6-trimethoxyphenyl]-N′-(2-methyl-2-pentadecylsulfonyl)urea]	< 10	–
CCCCCCCCCCCCOC(=O)NS(=O)(=O)Nc1c(C(C)C)cccc1C(C)C [Example 250, Carbamic acid, [[[2,6-bis(1-methylethyl)phenyl]amino]sulfonyl]-, dodecyl ester]	–	Percent Inhibition at 10 μM (10 µM): <10%
[2-(2,4,6-Triisopropyl-phenyl)-acetyl]-sulfamic acid 4-(benzylamino-methyl)-2,6-diisopropyl-phenyl ester; compound with generic inorganic neutral component [Example 229]	–	Percent Inhibition at 10 μM: 75.79%
